According to patent US8946234B2, “Halogen-substituted compounds” (Bayer CropScience AG, priority 2008, dated 2015):

Test: physchem
Format: physicochemical
In short: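 Following EEC Directive 79/831 Annex V.A8, logP is obtained from retention on a 1.8 micron C18 column (50×4.6 mm) at 55 °C and 2.0 ml/min. Elution ran 10→95% acetonitrile (0.1% formic acid) against water (0.09% formic acid) in 4.25 min, held 1.25 min; mass detection used.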

## CC(NC(=O)c1cc(NC(=O)c2c(Br)c(C(F)(F)F)nn2C)ccc1Cl)C(F)(F)F (centres unmarked) [Ik-158]
  logP: 3.40^a)

## Cn1nc(C(F)(F)F)c(Br)c1C(=O)Nc1ccc(Cl)c(C(=O)NC2CC2F)c1 (centres unmarked) [Ik-159]
  logP: 2.82^a)

## Cn1nc(C(F)(F)F)c(Br)c1C(=O)Nc1ccc(Cl)c(C(=O)NCC(F)(F)F)c1 [Ik-160]
  logP: 3.17^a)

## CC(NC(=O)c1cc(NC(=O)c2c(C(F)(F)F)c(C(F)(F)C(F)(F)F)nn2C)ccc1F)C(F)(F)F (centres unmarked) [Ik-161]
  logP: 3.89^a)

## Cn1nc(C(F)(F)C(F)(F)F)c(C(F)(F)F)c1C(=O)Nc1cc(F)cc(C(=O)NCc2ccccc2)c1 [Ik-162]
  logP: 4.05^a)

## Cn1nc(C(F)(F)C(F)(F)F)c(C(F)(F)F)c1C(=O)Nc1ccc(Cl)c(C(N)=O)c1 [Ik-163]
  logP: 2.83^a)

## CC(C)(C)n1nc(C(F)(F)C(F)(F)F)c(C(F)(F)F)c1C(=O)Nc1ccc(Cl)c(C(=O)NC2CC2)c1 [Ik-167]
  logP: 4.17^a)

## Cn1nc(C(F)(F)C(F)(F)F)c(C(F)(F)F)c1C(=O)Nc1ccc(F)c(C(=O)NC2CC2F)c1 (centres unmarked) [Ik-168]
  logP: 3.35^a)

## Cn1nc(C(F)(F)C(F)(F)F)c(C(F)(F)F)c1C(=O)Nc1cc(F)c(F)c(C(=O)NC2CC2)c1F [Ik-169]
  logP: 3.53^a)

## Cn1nc(C(F)(F)C(F)(F)F)c(C(F)(F)F)c1C(=O)Nc1cc(Cl)cc(C(=O)NC2CC2)c1Cl [Ik-170]
  logP: 3.78^a)

## Cn1nc(C(F)(F)C(F)(F)F)c(C(F)(F)F)c1C(=O)Nc1cc(C(=O)NCC(F)(F)F)c(Cl)cc1Cl [Ik-171]
  logP: 3.97^a)

## Cn1nc(C(F)(F)C(F)(F)F)c(C(F)(F)F)c1C(=O)Nc1ccc(Br)c(C(=O)NCc2ccccc2)c1 [Ik-172]
  logP: 4.03^a)

## Cn1nc(C(F)(F)C(F)(F)F)c(C(F)(F)F)c1C(=O)Nc1ccc(Br)c(C(=O)NCC(F)(F)F)c1 [Ik-173]
  logP: 3.77^a)

## CC(NC(=O)c1cc(NC(=O)c2c(C(F)(F)F)c(C(F)(F)C(F)(F)F)nn2C)ccc1Br)C(F)(F)F (centres unmarked) [Ik-174]
  logP: 3.95^a)

## Cn1nc(C(F)(F)C(F)(F)F)c(C(F)(F)F)c1C(=O)Nc1ccc(Br)c(C(=O)NC2CC2)c1 [Ik-175]
  logP: 3.39^a)

## O=C(NC1CC1)c1cc(NC(=O)c2c(C(F)(F)F)c(C(F)(F)C(F)(F)F)nn2-c2ccccc2)ccc1Cl [Ik-176]
  logP: 4.00^a)

## Cn1nc(C(F)(F)C(F)(F)F)c(C(F)(F)F)c1C(=O)Nc1cc(Br)c(Cl)c(C(=O)NCC(F)(F)F)c1 [Ik-178]
  logP: 4.14^a)

## O=C(NC1CC1)c1cc(NC(=O)c2[nH]nc(C(F)(F)C(F)(F)F)c2C(F)(F)F)ccc1Cl [Ik-179]
  logP: 2.95^a)

## Cn1nc(C(F)(F)C(F)(F)F)c(C(F)(F)F)c1C(=O)Nc1ccc([N+](=O)[O-])c(C(=O)NC2CC2)c1 [Ik-180]
  logP: 3.27^a)

## Cn1nc(C(F)(F)C(F)(F)F)c(C(F)(F)F)c1C(=O)Nc1ccc([N+](=O)[O-])c(C(=O)NCC(F)(F)F)c1 [Ik-181]
  logP: 3.58^a)

## Cn1nc(C(F)(F)F)c(I)c1C(=O)Nc1ccc(Cl)c(C(=O)NC2CC2)c1 [Ik-182]
  logP: 2.70^a)

## Cn1nc(C(F)(F)C(F)(F)F)c(C(F)(F)F)c1C(=O)Nc1ccc(I)c(C(=O)NC2CC2)c1 [Ik-183]
  logP: 3.45^a)

## Cn1nc(C(F)(F)C(F)(F)F)c(C(F)(F)F)c1C(=O)Nc1ccc(I)c(C(=O)NCc2ccccc2)c1 [Ik-184]
  logP: 4.07^a)

## COc1ccc(NC(=O)c2c(C(F)(F)F)c(C(F)(F)C(F)(F)F)nn2C)cc1C(=O)NC1CC1 [Ik-185]
  logP: 3.32^a)

## Cn1nc(C(F)(F)C(F)(F)F)c(C(F)(F)F)c1C(=O)Nc1ccc(Cl)c(C(=O)NCC=C(Cl)Cl)c1 [Ik-186]
  logP: 4.09^a)

## Cn1nc(C(F)(F)C(F)(F)F)c(C(F)(F)F)c1C(=O)Nc1cc(C#N)c(Cl)c(C(=O)NC2CC2)c1 [Ik-187]
  logP: 3.40^a)

## Cn1nc(C(F)(F)C(F)(F)F)c(C(F)(F)F)c1C(=O)Nc1cc(F)c(Cl)c(C(=O)NC2CC2)c1 [Ik-188]
  logP: 3.59^a)

## Cn1nc(C(F)(F)C(F)(F)F)c(C(F)(F)F)c1C(=O)Nc1cc(F)c(Cl)c(C(=O)NCc2ccccc2)c1 [Ik-189]
  logP: 4.14^a)

## Cn1nc(C(F)(F)C(F)(F)F)c(C(F)(F)F)c1C(=O)Nc1cc(F)c(Cl)c(C(=O)NCC(F)(F)F)c1 [Ik-190]
  logP: 3.91^a)

## CSc1c(F)cc(NC(=O)c2c(C(F)(F)F)c(C(F)(F)C(F)(F)F)nn2C)cc1C(=O)NC1CC1 [Ik-191]
  logP: 3.57^a)

## CSc1c(F)cc(NC(=O)c2c(C(F)(F)F)c(C(F)(F)C(F)(F)F)nn2C)cc1C(=O)NCc1ccccc1 [Ik-192]
  logP: 4.15^a)

## CSc1c(F)cc(NC(=O)c2c(C(F)(F)F)c(C(F)(F)C(F)(F)F)nn2C)cc1C(=O)NCC(F)(F)F [Ik-193]
  logP: 3.90^a)

## Cn1nc(C(F)(F)C(F)(F)F)c(C(F)(F)F)c1C(=O)Nc1cc(F)c(S(C)(=O)=O)c(C(=O)NC2CC2)c1 [Ik-194]
  logP: 2.92^a)

## Cn1nc(C(F)(F)F)c(C(F)(F)F)c1C(=O)Nc1ccc(Cl)c(C(=O)NC2CC2)c1 [Ik-195]
  logP: 2.89^a)

## Cn1nc(C(F)(F)F)c(C(F)(F)F)c1C(=O)Nc1ccc(Cl)c(C(=O)NCC=CCl)c1 [Ik-196]
  logP: 3.28^a)

## O=C(NC1CC1)c1cc(NC(=O)c2[nH]nc(C(F)(F)F)c2C(F)(F)F)ccc1Cl [Ik-197]
  logP: 2.55^a)

## CSc1c(Br)cc(NC(=O)c2c(C(F)(F)F)c(C(F)(F)C(F)(F)F)nn2C)cc1C(=O)NC1CC1 [Ik-198]
  logP: 3.87^a)

## CSc1c(Br)cc(NC(=O)c2c(C(F)(F)F)c(C(F)(F)C(F)(F)F)nn2C)cc1C(=O)NCc1ccccc1 [Ik-199]
  logP: 4.43^a)

## CSc1c(Br)cc(NC(=O)c2c(C(F)(F)F)c(C(F)(F)C(F)(F)F)nn2C)cc1C(=O)NCC(F)(F)F [Ik-200]
  logP: 4.22^a)

## CSc1c(Cl)cc(NC(=O)c2c(C(F)(F)F)c(C(F)(F)C(F)(F)F)nn2C)cc1C(=O)NC1CC1 [Ik-201]
  logP: 3.80^a)

## CSc1c(Cl)cc(NC(=O)c2c(C(F)(F)F)c(C(F)(F)C(F)(F)F)nn2C)cc1C(=O)NCc1ccccc1 [Ik-202]
  logP: 4.39^a)

## CSc1c(Cl)cc(NC(=O)c2c(C(F)(F)F)c(C(F)(F)C(F)(F)F)nn2C)cc1C(=O)NCC(F)(F)F [Ik-203]
  logP: 4.15^a)

## Cn1nc(C(F)(F)C(F)(F)F)c(C(F)(F)F)c1C(=O)Nc1cc(Cl)c(I)c(C(=O)NC2CC2)c1 [Ik-204]
  logP: 3.84^a)

## Cn1nc(C(F)(F)C(F)(F)F)c(C(F)(F)F)c1C(=O)Nc1cc(Cl)c(I)c(C(=O)NCc2ccccc2)c1 [Ik-205]
  logP: 4.45^a)

## Cn1nc(C(F)(F)C(F)(F)F)c(C(F)(F)F)c1C(=O)Nc1cc(Cl)c(I)c(C(=O)NCC(F)(F)F)c1 [Ik-206]
  logP: 4.18^a)

## Cn1nc(C(F)(F)C(F)(F)F)c(C(F)(F)F)c1C(=O)Nc1cc(Br)c(Br)c(C(=O)NC2CC2)c1 [Ik-207]
  logP: 3.84^a)

## Cn1nc(C(F)(F)C(F)(F)F)c(C(F)(F)F)c1C(=O)Nc1cc(Br)c(Br)c(C(=O)NCc2ccccc2)c1 [Ik-208]
  logP: 4.42^a)

## Cn1nc(C(F)(F)C(F)(F)F)c(C(F)(F)F)c1C(=O)Nc1cc(Br)c(Br)c(C(=O)NCC(F)(F)F)c1 [Ik-209]
  logP: 4.18^a)

## Cn1nc(C(F)(F)C(F)(F)F)c(C(F)(F)F)c1C(=O)Nc1cc(Br)c(I)c(C(=O)NC2CC2)c1 [Ik-210]
  logP: 3.92^a)

## Cn1nc(C(F)(F)C(F)(F)F)c(C(F)(F)F)c1C(=O)Nc1cc(Br)c(I)c(C(=O)NCc2ccccc2)c1 [Ik-211]
  logP: 4.49^a)

## Cn1nc(C(F)(F)C(F)(F)F)c(C(F)(F)F)c1C(=O)Nc1cc(Br)c(I)c(C(=O)NCC(F)(F)F)c1 [Ik-212]
  logP: 4.15^a)

## Cn1nc(C(F)(F)C(F)(F)F)c(C(F)(F)F)c1C(=O)Nc1cc(Cl)c(Br)c(C(=O)NC2CC2)c1 [Ik-213]
  logP: 3.81^a)

## Cn1nc(C(F)(F)C(F)(F)F)c(C(F)(F)F)c1C(=O)Nc1cc(Cl)c(Br)c(C(=O)NCc2ccccc2)c1 [Ik-214]
  logP: 4.42^a)

## Cn1nc(C(F)(F)C(F)(F)F)c(C(F)(F)F)c1C(=O)Nc1cc(Cl)c(Br)c(C(=O)NCC(F)(F)F)c1 [Ik-215]
  logP: 4.14^a)

## CCn1nc(C(F)(F)C(F)(F)F)c(C(F)(F)F)c1C(=O)Nc1ccc(Cl)c(C(=O)NCC(F)(F)F)c1 [Ik-216]
  logP: 3.93^a)

## CCn1nc(C(F)(F)C(F)(F)F)c(C(F)(F)F)c1C(=O)Nc1ccc(Cl)c(C(=O)NC2CC2)c1 [Ik-217]
  logP: 3.63^a)

## CC(C)n1nc(C(F)(F)C(F)(F)F)c(C(F)(F)F)c1C(=O)Nc1ccc(Cl)c(C(=O)NC2CC2)c1 [Ik-218]
  logP: 4.02^a)

## COCn1nc(C(F)(F)C(F)(F)F)c(C(F)(F)F)c1C(=O)Nc1ccc(Cl)c(C(=O)NC2CC2)c1 [Ik-219]
  logP: 3.50^a)

## COCn1nc(C(F)(F)C(F)(F)F)c(C(F)(F)F)c1C(=O)Nc1ccc(Cl)c(C(=O)NCC(F)(F)F)c1 [Ik-220]
HPLC on C18 phase inversion column, method a)
  logP: 3.82^a)

## Cn1nc(C(F)(F)C(F)(F)F)c(C(F)(F)F)c1C(=O)Nc1cc(Br)cc(C(=O)NC2CC2)c1 [Ik-221]
  logP: 3.74^a)

## Cn1nc(C(F)(F)C(F)(F)F)c(C(F)(F)F)c1C(=O)Nc1cc(Br)cc(C(=O)NCc2ccccc2)c1 [Ik-222]
  logP: 4.35^a)

## Cn1nc(C(F)(F)C(F)(F)F)c(C(F)(F)F)c1C(=O)Nc1cc(Br)cc(C(=O)NCC(F)(F)F)c1 [Ik-223]
  logP: 4.09^a)

## Cn1nc(C(F)(F)C(F)(F)F)c(C(F)(F)F)c1C(=O)Nc1cc(F)c(I)c(C(=O)NCC=CCl)c1 [Ik-224]
  logP: 3.99^a)

## Cn1nc(C(F)(F)C(F)(F)F)c(C(F)(F)F)c1C(=O)Nc1cc(F)c(I)c(C(=O)NC2CC2)c1 [Ik-225]
  logP: 3.63^a)

## Cn1nc(C(F)(F)C(F)(F)F)c(C(F)(F)F)c1C(=O)Nc1cc(F)c(I)c(C(=O)NCC(F)(F)F)c1 [Ik-226]
  logP: 3.95^a)

## Cn1nc(C(F)(F)C(F)(F)F)c(C(F)(F)F)c1C(=O)Nc1cc(F)c(I)c(C(=O)NCc2ccccc2)c1 [Ik-227]
  logP: 4.20^a)

## Cn1nc(C(F)(F)C(F)(F)F)c(C(F)(F)F)c1C(=O)Nc1cc(F)c(Br)c(C(=O)NCC(F)(F)F)c1 [Ik-228]
  logP: 3.88^a)

## Cn1nc(C(F)(F)C(F)(F)F)c(C(F)(F)F)c1C(=O)Nc1cc(F)c(Br)c(C(=O)NCc2ccccc2)c1 [Ik-229]
  logP: 4.14^a)
